# Data: ChEMBL document CHEMBL1157055, “Limonoids and tirucallane derivatives from the seeds of a krishna mangrove, Xylocarpus moluccensis” (2010)
# Active and inactive are the calls of the source. The calls are words filed in the database; no cut-off is given here.
# What was measured:
# Brontispa longissima [1] = assay: Insecticidal activity against Brontispa longissima Gestro at 100 ug/ml; format: functional, organism-based
# Brontispa longissima [2] = assay: Insecticidal activity against Brontispa longissima Gestro at 100 ug/ml after 96 hrs; format: functional
# Brontispa longissima [3] = assay: Insecticidal activity against Brontispa longissima Gestro at 100 ug/ml after 72 hrs; format: functional
Compound,Activity (Brontispa longissima [1]),Activity (Brontispa longissima [2]),Activity (Brontispa longissima [3])
CC[C@H](C)C(=O)O[C@@]12C(=O)C3=C4CC(=O)O[C@@H](c5ccoc5)[C@]4(C)CC[C@@H]3[C@]3(C)[C@@H](CC(=O)OC)[C@](C)(C[C@@]31O)[C@@H]2OC(=O)C(C)C,inactive,–,–
CC[C@H](C)C(=O)O[C@@]12C(=O)C3=C(CC[C@]4(C)C3=CC(=O)O[C@H]4c3ccoc3)[C@]3(C)[C@@H](CC(=O)OC)[C@](C)(C[C@]13O)[C@@H]2OC(=O)C(C)C,inactive,–,–
CC[C@H](C)C(=O)O[C@@]12C[C@]3(C)[C@H](OC(=O)C(C)C)[C@]1(O)C(=O)C1=C(CC[C@]4(C)C1=CC(=O)O[C@H]4c1ccoc1)[C@]2(C)[C@H]3CC(=O)OC [MOLUCCENSINS H],–,27.6%,20.7%
CC[C@H](C)C(=O)O[C@H]1[C@@]2(C)C[C@@]3(OC(=O)[C@@H](C)CC)[C@](C)([C@H]4CC[C@]5(C)C(=C4C(=O)[C@@]13O)CC(=O)O[C@H]5c1ccoc1)[C@H]2CC(=O)OC,inactive,–,–
